# Several values for one entry are separate records, joined by “and”; a condition that tells them apart may be missing. Identical values can stand only once.
# What was measured:
# [1] = target: glycine strychnine-insensitive site of the NMDA receptor complex (Homo sapiens, UniProt Q05586); assay: affinity at the glycine strychnine-insensitive site of the NMDA receptor complex; format: binding
# glycineb/D-serine site = target: T1, glycineb/D-serine site (Rattus norvegicus, UniProt P35439); assay: threshold extension in rats, reversal by D-serine; format: in vivo; conditions: a glycine agonist, dose dependent fashion
# T1 construct: from tissue; host or cells: living rat (in vivo)
# [2] = test system: ICR derived male or female mice; assay: Analgesia, Acetic Acid Writhing; format: in vivo; conditions: for No. of Writhes, X ± SEM: group of 3 mice; for No. of Writhes (individual animal): one hour before acetic acid, 5 to 10 minute period; for % Inh.: relative to vehicle control
# Source text: In the first animal study in Example 1, the degree of pain experienced by the mice after injection by acetic acid is seen by the number of writhes. If the mice experience no pain, there is no writhing.
# The protocol is based on the acetic acid writhing test in mice, developed by R. Koster, et al. Fed. Proc, 18, 412 […], and referred to a Koster test and Hunskarai, S., et al., J. Neuroscience Meth. 14: 69-76, 1985.
# Reduction in the number of writhes by 50 percent or more (≧50%) per group of animals observed during the 5 to 10 minute period after acetic acid administration, relative to a vehicle treated control group, indicated analgesic activity.
# [3] = test system: ICR derived male or female mice; assay: formalin induced hind paw licking; format: in vivo; conditions: for Licking Time, Ave.: 5 mice
# Description: The degree of pain is determined by measuring the decrease in the amount of time the animal spends licking the formalin-injected paw after administration of the drug.
# Reduction of the induced hind paw licking time recorded during the following 20 to 30 minutes period by 50 percent or more (50%) indicated analgesic activity.
# male ICR mice = assay: radiant heat induced tail flick response; format: in vivo
# Description: Groups of 4 male ICR mice weighing 22±2 gms were employed. A dose (30 mg/kg) of test compound dissolved in a vehicle of saline was administered intraperitoneally. The control group received vehicle alone. At pretreatment (0 minute) a focused beam of radiant heat was applied to the middle dorsal surface of the tail to elicit a tail flick response within 6-7.5 seconds in pre-treated animals. A maximum cut-off time of 15 seconds was set. The time required to elicit a pain response was recorded for each animal at 0 and 30 minutes following administration of test compound. Prolongation by 50 percent or more (≧50%) of the time required to elicit a tail flick indicated analgesic activity.
# [4] = target: T2, serotonin 5-HT1A receptor (Rattus norvegicus, UniProt P19327); assay: 5-MeODMT-induced head twitch; format: in vivo, rats
# T2 construct: from tissue; host or cells: living Long Evans derived rat (in vivo)
# T2 sequence (P19327 1-422): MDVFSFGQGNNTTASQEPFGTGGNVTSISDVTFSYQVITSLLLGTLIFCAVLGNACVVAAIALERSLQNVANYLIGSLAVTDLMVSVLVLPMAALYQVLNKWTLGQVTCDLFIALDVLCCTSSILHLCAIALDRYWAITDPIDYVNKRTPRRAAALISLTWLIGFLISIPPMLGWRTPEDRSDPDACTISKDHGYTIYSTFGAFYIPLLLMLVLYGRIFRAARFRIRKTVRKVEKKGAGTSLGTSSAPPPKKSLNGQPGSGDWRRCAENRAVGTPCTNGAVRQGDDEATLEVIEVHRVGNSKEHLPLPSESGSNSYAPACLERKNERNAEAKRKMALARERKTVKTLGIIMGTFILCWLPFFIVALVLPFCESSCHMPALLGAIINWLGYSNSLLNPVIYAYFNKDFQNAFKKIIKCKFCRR
# Description: Test substance was administered PO (30 mg/kg) to a group of 3 Long Evans derived male or female rats weighing 150±20 gms one hour before injection of 5-MeODMT (5-methoxy-N,N-dimethyltryptamine, 3 mg/kg IP).
# NMDA receptor = NMDA receptor (Mus musculus, UniProt P35438); assay: NMDA receptor agonism/antagonism after ICVT administration
# Description: Test substance was administered ICVT (intracerebroventricular, 30 μg in 5 μl/mouse). The appearance of convulsions/mortality in 2 or more (≧2) of 3 ICR derived male or female mice weighing 22±2 gms within the 5 minutes thereafter would indicate NMDA receptor agonism. At a dose where no significant agonist activity was seen within 5 minutes, ability to inhibit NMDA (60 mg/kg IV)—induced Tonic convulsions/mortality in 2 or more (≧2) of 3 ICR derived male or female mice weighing 22±gms within the following 5 minutes indicated NMDA receptor antagonist activity.
smiles,measurement,setting,value
"COC[C@@H](NC(C)=O)C(=O)NCc1ccccc1 [Compound I, (R)-2-Acetamido-N-benzyl-3-methoxypropionamide]",IC50,[1],5.3 µM
same,"effects on threshold extension in rats, reversal by D-serine",glycineb/D-serine site,can be reversed by D-serine
same,"No. of Writhes, X ± SEM",[2]; 30 mg/kg PO,X ± SEM 15 ± 1.7
same,No. of Writhes (individual animal),[2]; 30 mg/kg PO,18 and 12 and 15
same,% Inh.,[2]; 30 mg/kg PO,4%
same,"No. of Writhes, X ± SEM",[2]; 100 mg/kg PO,X ± SEM 0 ± 0
same,No. of Writhes (individual animal),[2]; 100 mg/kg PO,0
same,% Inh.,[2]; 100 mg/kg PO,100%
same,animals showing slight convulsions,"[2]; 100 mg/kg, 15 minutes after oral administration, mice","Compound I, at a dose of 100 mg/kg, 3 out of 3 animals showed slight convulsions 15 minutes after oral administration."
same,% Inh.,[3]; 30 mg/kg PO,22%
same,"Licking Time, Ave.",[3]; 30 mg/kg PO,100 s
same,% Inh.,[3]; 100 mg/kg PO,100%
same,"Licking Time, Ave.",[3]; 100 mg/kg PO,0 s
same,"Licking Time, Indiv.","[3]; 100 mg/kg PO, 20 to 30 minutes after formalin",0 s
same,animals showing slight convulsions,"[3]; 100 mg/kg, at 15 minutes after oral administration, mice","Compound I, at a dose of 100 mg/kg, 5 out of 5 animals showed slight convulsions at 15 minutes after oral administration."
same,radiant heat induced tail flick response (in words),male ICR mice; 30 mg/Kg,unaffected
same,% Inh.,male ICR mice; 30 mg/kg IP,0%
same,Response Time 30 Min. (individual animal),"male ICR mice; 30 mg/kg IP, 30 minutes after administration, cut-off 15 seconds",5.8 and 5.0 and 6.0 and 6.2
same,"Response Time 30 Min., X","male ICR mice; 30 mg/kg IP, mean of 4 mice",5.8
same,"Response Time 0 Min., X","male ICR mice; 30 mg/kg IP, mean of 4 mice, pretreatment",6.7
same,Response Time 0 Min. (individual animal),"male ICR mice; 30 mg/kg IP, pretreatment (0 minute)",6.4 (2×) and 7.3 and 6.5
same,potentiation of 5-MeODMT-induced heat twitch,[4]; 30 mg/Kg PO,No potentiation
same,"Head Twitch, Ave.","[4]; 30 mg/kg PO, 3 rats",1
same,animals showing tremors without convulsions,"NMDA receptor; 30 μg/mouse, after intracerebroventricular administration",2 out of 3
same,Agonism (mice with convulsions/mortality within 5 minutes),"NMDA receptor; ICVT 30 μg/mouse, N 3",0
same,Antagonism (mice protected from NMDA 60 mg/kg IV induced tonic convulsions/mortality),"NMDA receptor; ICVT 30 μg/mouse, N 3",1
